Test results reported in patent US20220220041A1, “USE OF UREA AS AN ANTIMICROBIAL ADDITIVE IN AN AQUEOUS SUSPENSION” (Omya International AG, priority 2019, published 2022).

Tests used:
[1] = system: total viable bacteria, not inoculated; assay: Example 2 preservation efficacy: H60 slurry with 61 wt.-% urea solution, control samples not inoculated, TVC; type: cell-based; settings: inoculum none, 30° C.
Experimental: (§1) All quoted bacterial counts (Total viable counts (TVC) values), unless otherwise indicated, are given in cfu/ml and determined after at least 2 days following plate-out and incubation at 30° C. and in accordance with the counting method described in “Bestimmung von aerobe mesophilen Keimen”, Schweizerisches Lebensmittelbuch, chapter 56, section 7.01, edition of 1985, revised version of 1988.
(§2) Unless otherwise stated, per tryptic soy agar plate (TSA, prepared using BD 236950) 0.1 ml of a solution or suspension is plated. Counts from 10000 cfu/ml to 99999 cfu/ml are reported as >1E4 cfu/ml. Counts from 100000 cfu/ml to 999999 cfu/ml are reported as >1E5 cfu/ml. Counts above 1000000 cfu/ml are reported as >1E6 cfu/ml.
(§3) 50 g sterile slurry H60 with a solid content of 76.5 wt.-%, based on the total weight of the H60 slurry is supplemented with different amounts of 61 wt.-% urea solution or water. The samples are then inoculated with 1 ml non-sterile calcium carbonate slurry (H60), 1 ml non-sterile calcium carbonate slurry (H90), 0.02 ml overnight culture of Escherichia coli (DSMZ 46295) and 0.02 ml overnight culture of Pseudomonas putida. The control samples are not inoculated. Samples are incubated at 30° C. and the TVC and pH are determined at various time points (0 day, 1 day, 4, days, 8 days, 9 days and/or 13 days).

[2] = system: non-sterile calcium carbonate slurry (H90), environmental bacteria; assay: Example 2 preservation efficacy: H60 slurry with 61 wt.-% urea solution, non-sterile H90 inoculum, TVC; type: cell-based; settings: 30° C.
Experimental: as §1, §2
(§4) Non-sterile slurries (H60 or H90) contain contamination with environmental bacteria at a TVC>100000 cfu/ml. The contamination originates spontaneously and a bacterial burden of at least>100000 cfu/ml is confirmed prior use as inoculum by TVC. The following bacterial species are known to occur, as identified by 16S RNA sequencing or MALDI-TOF-MS analysis: Rhizobium radiobacter, Brevundimonas intermedia, Brevundimonas diminiuta, Sphingomonas sp., Pseudomonas stutzeri, Pseudomonas sp., Comomonas aquatic.
as §3

[3] = system: natural resident bacteria of industrial grade urea, not inoculated; assay: Example 3 preservation efficacy: H60 slurry with industrial grade urea solution, not inoculated, TVC; type: cell-based; settings: industrial grade urea 5.5%, calcium carbonate 69%, water 25.5% w/w, inoculum none, 30° C.
Experimental: as §1, §2
(§5) 50 g sterile calcium carbonate slurry (H60) with a solid content of 77.3 wt.-%, based on the total weight of the H60 slurry is supplemented with industrial grade 50% (w/w) urea solution (Yara Canda Inc.) or water to different final concentrations. The industrial grade contained natural resident (i.e. bacteria in a non-growing state) bacteria. The bacterial of the industrial urea burden is 5 cfu/3 ml as determined by TVC. The species are identified by characterizing the grown colonies from the TVC by 16 S RNA sequencing, known to the person skilled in the art.
The species identified are Sporosarcina koreensis, (Gram positive, urease positive, spore forming), Paenibacillus sp., (Gram positive, urease positive, spore forming) and Halobacillus trueperi (Gram positive, urease negative, spore forming).
(§6) The samples are further artificially inoculated with 1 ml non-sterile calcium carbonate slurry (H60), 1 ml non-sterile calcium carbonate slurry (H90), 0.02 ml overnight culture of Escherichia coli (DSMZ 46295) and 0.02 ml overnight culture Pseudomonas putida. The control sample are not inoculated. […]

rats = settings: cited from earlier work
[4] = Example 5: addition of dry urea to H60 slurry, viscosity and stability of the product; type: physicochemical; settings: 2.68 wt.-% urea and 73 wt.-% calcium carbonate
Experimental: The Brookfield viscosity is measured by a Brookfield DV-III Ultra viscometer at 20° C.±3° C. at 100 rpm using an LV-3 spindle and is specified in mPa·s. Once the spindle has been inserted into the sample, the measurement is started with a constant rotating speed of 100 rpm.
1 kg calcium carbonate slurry (H60) with a solid content of 75 wt.-%, based on the total weight of the H60 slurry is stirred at approximately 500 rotations per minute (rpm) and 27.5 g dry urea is added slowly during agitation, leading to 2.68 wt.-% urea and 73 wt.-% calcium carbonate, based on the total weight of the obtained slurry. The blend is further mixed for 30 minutes at slow speed (<500 rpm).

[5] = pH measurement of the suspension; type: physicochemical; settings: 30° C.; for pH Day 8: Table 2; for pH Day 4: Table 3; for pH Day 11: Table 5; for pH Day 16: industrial grade urea 5.5%, calcium carbonate 69%, water 25.5% w/w
Experimental: The pH of a suspension is measured at 25° C. using a Mettler Toledo Seven Easy pH meter and a Mettler Toledo InLab® Expert Pro pH electrode. A three point calibration (according to the segment method) of the instrument is first made using commercially available buffer solutions having pH values of 4, 7 and 10 at 20° C. (from Aldrich). The reported pH values are the endpoint values detected by the instrument (the endpoint is when the measured signal differs by less than 0.1 mV from the average over the last 6 s).

[6] = system: non-sterile calcium carbonate slurry (H60), environmental bacteria; assay: Example 3 preservation efficacy: H60 slurry with industrial grade urea solution, non-sterile H60 inoculum, TVC; type: cell-based; settings: industrial grade urea 5.5%, calcium carbonate 69%, water 25.5% w/w, 30° C.
Experimental: as §1, §2, §4, §5, §6

[7] = Table 2, urea 2.75%, calcium carbonate 73.1%, water 24.15% w/w
[8] = Table 2, urea 7.6%, calcium carbonate 67.1%, water 25.3% w/w
[9] = Table 3, urea 0.65%, calcium carbonate 75.7%, water 23.65% w/w
[10] = Table 3, urea 1.28%, calcium carbonate 74.9%, water 23.82% w/w
[11] = Table 3, urea 2.75%, calcium carbonate 73.1%, water 24.15% w/w
[12] = urea 2.75%, calcium carbonate 73.1%, water 24.15% w/w, inoculum none

## NC(N)=O [urea]
[1]; [7]
  TVC cfu/ml Day 4: <100 cfu/ml
  TVC cfu/ml Day 8: <100 cfu/ml
  TVC cfu/ml Day 13: <100 cfu/ml
[1]; Table 2, urea 2.75%, calcium carbonate 73.1%, water 24.15% w/w, detection limit 100 cfu/ml
  TVC cfu/ml Day 1: <100 cfu/ml
[1]; [8]
  TVC cfu/ml Day 1: <100 cfu/ml
  TVC cfu/ml Day 4: <100 cfu/ml
  TVC cfu/ml Day 8: <100 cfu/ml
  TVC cfu/ml Day 13: <100 cfu/ml
[1]; [9]
  TVC cfu/ml Day 4: <100 cfu/ml
[1]; Table 3, urea 0.65%, calcium carbonate 75.7%, water 23.65% w/w, detection limit 100 cfu/ml
  TVC cfu/ml Day 1: <100 cfu/ml
[1]; [10]
  TVC cfu/ml Day 1: <100 cfu/ml
  TVC cfu/ml Day 4: <100 cfu/ml
[1]; [11]
  TVC cfu/ml Day 1: <100 cfu/ml
  TVC cfu/ml Day 4: <100 cfu/ml
  TVC cfu/ml Day 9: <100 cfu/ml
[2]; [7]
  TVC cfu/ml Day 1: <100 cfu/ml
  TVC cfu/ml Day 4: <100 cfu/ml
  TVC cfu/ml Day 8: <100 cfu/ml
  TVC cfu/ml Day 13: <100 cfu/ml
[2]; [8]
  TVC cfu/ml Day 1: <100 cfu/ml
  TVC cfu/ml Day 4: <100 cfu/ml
  TVC cfu/ml Day 8: <100 cfu/ml
  TVC cfu/ml Day 13: <100 cfu/ml
[2]; [9]
  TVC cfu/ml Day 1: >1E5 cfu/ml
  TVC cfu/ml Day 4: >1E5 cfu/ml
[2]; [11]
  TVC cfu/ml Day 1: <100 cfu/ml
  TVC cfu/ml Day 4: <100 cfu/ml
  TVC cfu/ml Day 9: <100 cfu/ml
[3]
  TVC cfu/ml Day 4: <100 cfu/ml
  TVC cfu/ml Day 8: 100 cfu/ml
  TVC cfu/ml Day 11: <100 cfu/ml
  TVC cfu/ml Day 13: <100 cfu/ml
[3]; detection limit 100 cfu/ml
  TVC cfu/ml Day 1: <100 cfu/ml
rats
  LD50: 15000 mg/kg
[4]
  formation of clumps after addition of dry urea: No clumps were formed
  viscosity after addition of dry urea: does not increase
[4]; 7 days at room temperature and 40° C.
  stability of the product: remains stable
[5]; [12]
  pH Day 8: 9.16
  pH Day 4: 9.11
[5]; urea 7.6%, calcium carbonate 67.1%, water 25.3% w/w, inoculum none
  pH Day 8: 9.25
[5]; urea 0.65%, calcium carbonate 75.7%, water 23.65% w/w, inoculum none
  pH Day 4: 9.06
[5]; urea 1.28%, calcium carbonate 74.9%, water 23.82% w/w, inoculum none
  pH Day 4: 9.05
[5]; urea 0.40%, calcium carbonate 75.61%, water 23.99% w/w, inoculum H60
  pH Day 11: 9.05
[5]; urea 1.10%, calcium carbonate 75.48%, water 23.42% w/w, inoculum H60
  pH Day 11: 9.25
[5]; urea 2.80%, calcium carbonate 75.21%, water 21.98% w/w, inoculum H60
  pH Day 11: 9.10
[5]; inoculum E. coli
  pH Day 16: 9.02
[5]; inoculum H60
  pH Day 16: 9.00
[5]; inoculum H90
  pH Day 16: 8.97
[5]; inoculum P. putida
  pH Day 16: 9.04
[5]; inoculum none
  pH Day 16: 9.02
[6]
  TVC cfu/ml Day 4: <100 cfu/ml
  TVC cfu/ml Day 8: <100 cfu/ml
  TVC cfu/ml Day 11: <100 cfu/ml
  TVC cfu/ml Day 13: <100 cfu/ml
